Laboratory results published in publication PMC4501006, “Preliminary Characterization and In Vivo Studies of Structurally Identical ^18F- and ^125I-Labeled Benzyloxybenzenes for PET/SPECT Imaging of β-Amyloid Plaques” (Scientific Reports, 2015).

Legend:
Aβ plaques = Aβ plaques (Homo sapiens, UniProt P05067); assay: In vitro autoradiography on AD human brain sections; type: binding
From the text: Figure 5 In vitro autoradiography of [^125I]7a (a–d), [^18F]7a (e–h), [^125I]12a (i–l) and [^18F]12a (m–p).

[1] = Partition coefficient determination (log D); type: physicochemical
Method: An ideal Aβ imaging probe would combine a high binding affinity to Aβ plaques and excellent pharmacokinetics with high initial brain uptake and rapid washout from normal brain regions. Thus, the partition coefficients of these four radiolabeled ligands were determined to estimate their ability to penetrate the BBB.

[2] = In vivo metabolism (biostability), HPLC analysis of organ samples; conditions: ICR mice, i.v.
Method: All four radioactive ligands degraded to two corresponding polar radioactive products with shorter retention times. […] The good in vivo biostability of these compounds enhances their potential for SPECT mapping of the brain. […] In the plasma, all four ligands were rapidly converted to polar metabolites, leaving only approximately 10% of the parent tracers at 60 min. […] In contrast, the breakdown of [^125I]7a and [^125I]12a was so rapid that almost negligible amounts of parent tracers remained at 30 min (8.8% and 6.3%, respectively). The polar and hydrophilic metabolites metabolized by the liver could be absorbed by the intestine and excreted through the urine, in accordance with the biodistribution results. The rapid metabolism in the liver may be another reason for the faster clearance of these compounds from the normal brain. For structurally identical molecules labeled with radioactive isotopes at different positions, the in vivo metabolic pathways were expected to be the same. However, as only radioactive products can be detected with PET/SPECT scanners, different pharmacokinetics of the radioactive components could lead to different imaging results. […] The dual radiolabeled identical benzyloxybenzene derivatives in this study were expected to undergo the same metabolic reactions, generating different radioactive metabolites. Differences in the biochemical characteristics of the radiometabolites including absorption, distribution, metabolism and excretion are responsible for the discrepancy in the pharmacokinetics of the radioactivity.

Chain of Aβ plaques (P05067 672-711 limits assumed): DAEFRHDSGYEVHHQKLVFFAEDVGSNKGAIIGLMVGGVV

SMILES	in vitro autoradiography, plaque labeling (Aβ plaques)	logD [1]	Percentage of Parent tracer, Brain ([2]; post-injection time 2 min)	Percentage of Parent tracer, Feces ([2]; post-injection time 2 min)	Percentage of Parent tracer, Liver ([2]; post-injection time 2 min)	Percentage of Parent tracer, Plasma ([2]; post-injection time 2 min)	Percentage of Parent tracer, Urine ([2]; post-injection time 2 min)	Percentage of Parent tracer, Brain ([2]; post-injection time 10 min)	Percentage of Parent tracer, Feces ([2]; post-injection time 10 min)	Percentage of Parent tracer, Liver ([2]; post-injection time 10 min)	Percentage of Parent tracer, Plasma ([2]; post-injection time 10 min)	Percentage of Parent tracer, Urine ([2]; post-injection time 10 min)	Percentage of Parent tracer, Brain ([2]; post-injection time 30 min)	Percentage of Parent tracer, Feces ([2]; post-injection time 30 min)	Percentage of Parent tracer, Liver ([2]; post-injection time 30 min)	Percentage of Parent tracer, Plasma ([2]; post-injection time 30 min)	Percentage of Parent tracer, Urine ([2]; post-injection time 30 min)	Percentage of Parent tracer, Brain ([2]; post-injection time 60 min)	Percentage of Parent tracer, Feces ([2]; post-injection time 60 min)	Percentage of Parent tracer, Liver ([2]; post-injection time 60 min)	also measured
FCCOc1ccc(OCc2ccc([125I])cc2)cc1 [[^125I]7a]	specifically label Aβ deposits	3.96 ± 0.22	95.9%	22.9%	35.2%	85.2%	0.0%	86.0%	58.8%	13.5%	41.3%	2.6%	79.4%	2.0%	8.8%	22.1%	0.0%	72.1%	0.0%	3.3%	Percentage of Parent tracer, Plasma ([2]; post-injection time 60 min): 12.3%; Percentage of Parent tracer, Urine ([2]; post-injection time 60 min): 0.0%
[18F]CCOc1ccc(COc2ccc(I)cc2)cc1 [[^18F]12a]	specifically label Aβ deposits	3.84 ± 0.07	87.9%	46.7%	91.1%	73.7%	0.0%	65.7%	20.9%	85.3%	40.4%	0.0%	49.2%	16.8%	82.2%	34.1%	0.0%	29.8%	17.4%	21.7%	Percentage of Parent tracer, Plasma ([2]; post-injection time 60 min): 13.9%; Percentage of Parent tracer, Urine ([2]; post-injection time 60 min): 0.0%
[18F]CCOc1ccc(OCc2ccc(I)cc2)cc1 [[^18F]7a]	specifically label Aβ deposits	3.88 ± 0.17	84.7%	53.6%	79.5%	43.1%	0.0%	69.8%	18.8%	62.6%	21.6%	0.0%	68.9%	10.5%	48.7%	21.8%	0.0%	34.0%	7.3%	23.4%	Percentage of Parent tracer, Plasma ([2]; post-injection time 60 min): 7.2%; Percentage of Parent tracer, Urine ([2]; post-injection time 60 min): 0.0%
